Here are results for 13 compounds from patent US8435980B2 (AbbVie Inc., priority 2009, dated 2013).

The structures appear in SMILES notation.

The experiment concerns the target T1, Cdc7 (BEV coexpressed huCDC7/DBF4) (Homo sapiens, UniProt O00311).
T1 construct: made in house; host or cells: BEV (baculovirus expression vector) co-expression; insect cells are implied but no cell line is named
Kind of experiment: Cdc7 enzyme inhibition assay ([33P]ATP, biotinylated peptide substrate, FlashPlate). The format is biochemical. Particulars: Table 3; enzyme inhibition data (Ki). On the procedure:
Cdc7 (BEV coexpressed huCDC7/DBF4) is prepared internally. Cdc7 assays are conducted as follows with final concentrations as listed. […] Reactions are quenched after 1 hr by the addition of 90 μL stop buffer (50 mM EDTA, 2M NaCl). […] (Ki) for exemplary compounds.

T1 sequence (O00311 whole entry): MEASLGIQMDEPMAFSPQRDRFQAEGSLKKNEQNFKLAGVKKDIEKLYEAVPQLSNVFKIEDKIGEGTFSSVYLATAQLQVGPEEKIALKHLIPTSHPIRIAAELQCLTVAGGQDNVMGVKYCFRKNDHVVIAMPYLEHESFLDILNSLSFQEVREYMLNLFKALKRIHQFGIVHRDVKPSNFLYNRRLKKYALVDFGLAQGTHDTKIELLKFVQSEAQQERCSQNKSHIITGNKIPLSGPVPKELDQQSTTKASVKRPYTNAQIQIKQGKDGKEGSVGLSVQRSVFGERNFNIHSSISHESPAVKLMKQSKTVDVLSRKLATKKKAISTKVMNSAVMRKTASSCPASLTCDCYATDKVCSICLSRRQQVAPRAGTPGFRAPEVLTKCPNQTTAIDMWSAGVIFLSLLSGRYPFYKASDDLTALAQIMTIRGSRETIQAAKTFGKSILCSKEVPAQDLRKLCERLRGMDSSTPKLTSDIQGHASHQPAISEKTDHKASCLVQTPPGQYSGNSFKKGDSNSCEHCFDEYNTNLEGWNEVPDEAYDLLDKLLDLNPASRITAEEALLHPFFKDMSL
T1 sequence (Q9UBU7 whole entry partner): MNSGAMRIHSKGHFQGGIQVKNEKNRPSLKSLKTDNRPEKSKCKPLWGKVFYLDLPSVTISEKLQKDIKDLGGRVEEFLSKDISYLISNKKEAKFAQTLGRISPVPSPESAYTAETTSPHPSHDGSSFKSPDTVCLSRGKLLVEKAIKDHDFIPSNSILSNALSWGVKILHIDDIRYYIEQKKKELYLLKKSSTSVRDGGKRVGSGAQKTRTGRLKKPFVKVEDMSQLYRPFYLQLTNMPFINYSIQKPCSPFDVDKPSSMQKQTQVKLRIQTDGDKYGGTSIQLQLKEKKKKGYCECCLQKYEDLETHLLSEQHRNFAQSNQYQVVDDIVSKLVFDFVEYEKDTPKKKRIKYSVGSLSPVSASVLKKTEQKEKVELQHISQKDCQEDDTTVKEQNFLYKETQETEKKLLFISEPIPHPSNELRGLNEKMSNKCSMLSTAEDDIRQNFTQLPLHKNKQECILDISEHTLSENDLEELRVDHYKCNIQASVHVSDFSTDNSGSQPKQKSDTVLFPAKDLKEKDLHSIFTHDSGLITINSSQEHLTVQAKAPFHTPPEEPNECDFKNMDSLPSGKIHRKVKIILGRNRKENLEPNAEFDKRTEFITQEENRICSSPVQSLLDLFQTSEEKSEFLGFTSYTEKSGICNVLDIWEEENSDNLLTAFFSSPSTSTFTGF

The compound `O=C1C[C@@H](C(=O)N[C@H]2CC[C@H](Nc3cc(-c4c[nH]c5ncccc45)cc(Cl)n3)CC2)N1` [Example 115, (2S)—N-(trans-4-{[6-chloro-4-(1H-pyrrolo[2,3-b]pyridin-3-yl)pyridin-2-yl]-amino}cyclohexyl)-4-oxo azetidine-2-carboxamide] returned a Ki of less than 10 nM.

`CN[C@@H](C)C(=O)N[C@H]1CC[C@H](Nc2cc(-c3c[nH]c4ncccc34)cc(Cl)n2)CC1` [Example 116, N-(trans-4-{[6-chloro-4-(1H-pyrrolo[2,3-b]pyridin-3-yl)pyridin-2-yl]amino}cyclohexyl)-N^2-methyl-L-alaninamide] yielded a Ki of less than 10 nM.

For `O=C(C1CCN1)N1CCC(Nc2cc(-c3c[nH]c4ncccc34)cc(Cl)n2)CC1` (stereo not shown) [Example 117, Azetidin-2-yl(4-{[6-chloro-4-(1H-pyrrolo[2,3-b]pyridin-3-yl)pyridin-2-yl]amino}piperidin-1-yl)methanone], the Ki was less than 10 nM.

In turn, `CN(C)CC(=O)NC1CCCC(Nc2cc(-c3c[nH]c4ncccc34)cc(Cl)n2)C1` (stereo not shown) [Example 118, N-(3-{[6-chloro-4-(1H-pyrrolo[2,3-b]pyridin-3-yl)pyridin-2-yl]amino}cyclohexyl)-N^2,N^2-dimethylglycinamide] registered a Ki of less than 10 nM.

As for `CN1CCC[C@H]1C(=O)NC1CCCC(Nc2cc(-c3c[nH]c4ncccc34)cc(Cl)n2)C1` (stereo partly drawn) [Example 119, N-(3-{[6-chloro-4-(1H-pyrrolo[2,3-b]pyridin-3-yl)pyridin-2-yl]amino}cyclohexyl)-1-methyl-L-prolinamide], the Ki is less than 10 nM.

In turn, `CN(C)CC(C)(C)CNc1cc(-c2c[nH]c3ncccc23)cc(Cl)n1` [Example 121, N′-[6-chloro-4-(1H-pyrrolo[2,3-b]pyridin-3-yl)pyridin-2-yl]-N,N,2,2-tetramethylpropane-1,3-diamine] displayed an inhibitory constant (Ki) of less than 10 nM.

`CS(=O)(=O)Nc1cc(-c2c[nH]c3ncccc23)cc(Cl)n1` [Example 122, N-[6-chloro-4-(1H-pyrrolo[2,3-b]pyridin-3-yl)pyridin-2-yl]methanesulfonamide]: the Ki was less than 10 nM.

`O=S(=O)(Nc1cc(-c2c[nH]c3ncccc23)cc(Cl)n1)c1ccccc1` [Example 123, N-[6-chloro-4-(1H-pyrrolo[2,3-b]pyridin-3-yl)pyridin-2-yl]benzenesulfonamide] showed a Ki of less than 10 nM.

Take `CC(C)(CNC(=O)C1CC1)CNc1cc(-c2c[nH]c3ncccc23)cc(Cl)n1` [Example 124, N-(3-{[6-chloro-4-(1H-pyrrolo[2,3-b]pyridin-3-yl)pyridin-2-yl]amino}-2,2-dimethylpropyl)cyclopropanecarboxamide]: the Ki was less than 10 nM.

For the compound `O=C(C1CC1)N1CCC(Nc2cc(-c3c[nH]c4ncccc34)cc(Cl)n2)CC1` [Example 126, (4-{[6-chloro-4-(1H-pyrrolo[2,3-b]pyridin-3-yl)pyridin-2-yl]amino}piperidin-1-yl)(cyclopropyl)methanone], the Ki is less than 10 nM.

Consider `C[C@@H](C(=O)N[C@H]1CC[C@H](Nc2cc(-c3c[nH]c4ncccc34)cc(Cl)n2)CC1)N(C)C` [Example 127, N-(trans-4-{[6-chloro-4-(1H-pyrrolo[2,3-b]pyridin-3-yl)pyridin-2-yl]amino}cyclohexyl)-N^2,N^2-dimethyl-L-alaninamide], for which the inhibitory constant (Ki) was less than 10 nM.

As to `Clc1cc(-c2c[nH]c3ncccc23)cc(NC2CCN(C3CCC3)CC2)n1` [Example 128, 6-chloro-N-(1-cyclobutylpiperidin-4-yl)-4-(1H-pyrrolo[2,3-b]pyridin-3-yl)pyridin-2-amine], the Ki was less than 10 nM.

Regarding `O=C(NC1CCCC(Nc2cc(-c3c[nH]c4ncccc34)cc(Cl)n2)C1)C1CCCCN1` (stereo not shown) [Example 129, N-(3-{[6-chloro-4-(1H-pyrrolo[2,3-b]pyridin-3-yl)pyridin-2-yl]amino}cyclohexyl)piperidine-2-carboxamide], the Ki is less than 10 nM.
